Experiment: Binding of reporter dye prodan to the lumen of alpha helical barrels (fluorescence titration)
Conditions: dissociation constant of prodan (1 μM) with alpha helical barrel 0.5-500 μM, up to 2 hours, fluorescent signal
Description: The dyes 1,6-diphenyl-1,3,5-hexatriene (DPH) and 6-propionyl-2-dimethylaminonaphthalene (prodan) were assayed against a number of alpha helical barrels to determine their dissociation constants, KD. DPH or prodan (1 μM) was incubated with varying concentrations of alpha helical barrel (0.5-500 μM) for up to 2 hours, and the fluorescent signal measured at the corresponding emission wavelength.

| Sequence | Kd [µM] | Prodan KD |
| --- | --- | --- |
| GKIEQILQKIEKILQKIEWILQKIEQILQG [CC-Pent, forms alpha helical barrel with 5 helices] | > 500 | did not bind |
| GELKAIAQELKAIAKELKAIAWELKAIAQG [CC-Hex, forms alpha helical barrel with 6 helices] | > 500 | did not bind |
